Source: patent EP0811621A2, “Carbamoyl substituted oxazoles as thromboxane receptor antagonists” (ELI LILLY AND COMPANY, priority 1996, dated 1997)
pIC50, pKd: −log10 of the molar value.

Experiments:
TXA2/PGH2 receptor = molecular target: T1, TXA2/PGH2 receptor (Homo sapiens, UniProt P21731); assay: Receptor Binding Assay ([125I]IBOP, platelet membranes); settings: 30 °C for 30 min
T1 construct: Membranes from outdated human platelets were prepared as previously described; from tissue; host or cells: human platelets (membranes)
T1 sequence (P21731 1-343): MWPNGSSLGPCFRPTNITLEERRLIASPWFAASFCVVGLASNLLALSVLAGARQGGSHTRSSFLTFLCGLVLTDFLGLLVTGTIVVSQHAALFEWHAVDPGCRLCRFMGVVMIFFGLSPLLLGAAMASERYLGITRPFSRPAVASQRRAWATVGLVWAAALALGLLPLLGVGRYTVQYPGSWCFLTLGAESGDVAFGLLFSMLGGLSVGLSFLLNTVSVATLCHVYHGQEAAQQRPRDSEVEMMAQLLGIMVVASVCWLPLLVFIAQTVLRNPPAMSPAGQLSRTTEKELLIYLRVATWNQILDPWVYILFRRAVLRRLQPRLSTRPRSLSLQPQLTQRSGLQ
Protocol: (§1) Measurement of Thromboxane Receptor Antagonism:
(§2) • 1. Receptor Binding Assay. Membranes from outdated human platelets were prepared as previously described (Mais, D. E., et al., Eur. J. Pharmacol. (1992), 227, 267-274). Incubations (220 µL) containing 10 µg of platelet membranes were performed in siliconized glass tubes (12 x 75 mm) at 30 °C for 30 min. The incubation media consisted of 10 mM Hepes, 2 mM CHAPS, 10 µM Indomethacin (pH = 7.4), ∼0.05 nM (∼25000 cpm) of [^125I]IBOP per tube, and varying concentrations of competing ligands ranging from 10^-10 to 10^-5 M. The reaction was terminated by addition of 4 mL of ice cold buffer (25 mM Tris) at pH 7.4, followed by rapid filtration through Whatman GF/C glass filters pre-soaked in 0.3% polyethyleneamine (Whatman, Inc., Clifton, NJ) using a Brandel M-24 cell harvester (Gaithersburg, MD). Non-specific binding was defined as that amount of radioactivity bound in the presence of a large molar excess (10 µM) of SQ29548, a potent TXA2/PGH2 receptor antagonist. The binding in this assay is defined in terms of the dissociation constant Kd. […] Platelet Aggregation Studies. The ability of a test compound to antagonize TXA2/PGH2 receptor-induced human platelet aggregation was studied in the following manner. Blood was collected from volunteers who denied taking any medication known to influence platelet aggregation within the previous 10 days. […] Platelet-rich plasma was prepared by centrifugation at 100 x g for 12 min, and platelet-poor plasma was prepared by centrifugation at 12,000 x g for 2 min. Receptor activation and subsequent platelet aggregation was induced by the addition of the stable analog of TXA2/PGH2, U46619 (1 micromolar). Aggregation was monitored in a Biodata PAP4 platelet aggregation profiler for 3 min after the addition of U46619. Test compound or vehicle was preincubated with platelet-rich plasma for 1 min at 37 °C prior to the induction of aggregation with U46619.

thromboxane synthase = molecular target: T2, thromboxane synthase (Homo sapiens, UniProt P24557); assay: Thromboxane synthase inhibition in vitro (whole human blood, serum TXB2 by radioimmunoassay); assay type: cell-based; settings: 30 min at 37 °C
T2 construct: from tissue; host or cells: whole human blood
T2 sequence (P24557 1-533): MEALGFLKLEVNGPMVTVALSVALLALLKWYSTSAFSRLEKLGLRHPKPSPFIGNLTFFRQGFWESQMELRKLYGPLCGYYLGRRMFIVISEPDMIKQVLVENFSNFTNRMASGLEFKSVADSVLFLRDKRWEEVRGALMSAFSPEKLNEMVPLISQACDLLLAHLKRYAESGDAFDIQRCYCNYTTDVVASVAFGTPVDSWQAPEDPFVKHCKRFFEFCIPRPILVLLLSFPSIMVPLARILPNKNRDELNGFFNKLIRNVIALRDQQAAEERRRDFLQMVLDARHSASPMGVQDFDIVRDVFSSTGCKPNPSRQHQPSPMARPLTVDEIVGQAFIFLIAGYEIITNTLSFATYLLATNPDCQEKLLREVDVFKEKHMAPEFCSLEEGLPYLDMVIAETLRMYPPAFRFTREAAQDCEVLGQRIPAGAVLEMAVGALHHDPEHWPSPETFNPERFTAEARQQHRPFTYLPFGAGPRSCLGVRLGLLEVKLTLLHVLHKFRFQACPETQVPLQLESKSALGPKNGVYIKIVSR
Protocol: Measurement of Thromboxane Synthase Inhibition and Prostacyclin Formation:
(§3) • 1. In vitro Experiments. The ability of a test compound to inhibit thromboxane synthase, as well as to change the amount of prostacyclin formed, were measured using published methods. […] Serum TXB2 and 6-keto-PGF1a, the stable metabolites of TXA2 and prostacyclin (PGI2), respectively, were measured by radioimmunoassay as described (Jakubowski, J.A., et al., Arteriosclerosis, (1987), 7, 599-604). The ability of a test compound to inhibit thromboxane synthase is expressed in the form of its IC50. […] Sprague Dawley rats (300 g males) were dosed by oral gavage with either vehicle (5% acacia) or 1-10 mg/kg test compound. Blood samples were collected 1 h after dosing. Animals were anesthetized (sodium pentobarbitol, 87 mg/kg i.p.) 15 min before sample collection. Blood samples were obtained by cardiac puncture via a butterfly catheter and the first mL of blood was discarded. Blood samples were divided into duplicates and incubated at 37 °C for 1 h in 13x100 mm glass tubes. Serum was separated by centrifugation at 2000 x g for 15 min at 25 °C, transferred to polypropylene tubes, and stored at -20 °C for subsequent assay using the methods referenced above.

[1] = test system: TXA2/PGH2 receptor-induced human platelet aggregation; assay: Platelet Aggregation Studies (U46619-induced aggregation in platelet-rich plasma); assay type: cell-based; settings: read-out: IC50, concentration of test compound required to inhibit U46619-induced platelet aggregation by 50%, U46619 (1 micromolar), 1 min preincubation at 37 °C
Protocol: as §1, §2

pithed rats = assay: Absence of Agonist Activity (pressor response after i.v. administration); assay type: in vivo
TXA2 formation = assay: Ex vivo inhibition of TXA2 formation following oral administration; assay type: in vivo; settings: Rattus norvegicus, 1 h, Sprague Dawley rats, oral gavage, one hour after dosing
Protocol: as §3

SMILES | pKd (TXA2/PGH2 receptor) | pIC50 (thromboxane synthase) | pIC50 [1] | further results
O=C(O)CCCC/C=C(\c1ccc(-c2nc(C(=O)NCCCN3CCOCC3)co2)cc1)c1cccnc1 [Example 27, (E)-7-[4-[4-[[(3-Morpholinopropyl)amino]carbonyl]-2-oxazolyl]phenyl]-7-(3-pyridyl)hept-6-enoic Acid] | < 5.00 |  |  | 
O=C(O)CCCC/C=C(/c1ccc(-c2nc(C(=O)NCCCCC3CCCCC3)co2)cc1)c1cccnc1 [Example 4, (Z)-7-[4-[4-[[(4-Cyclohexylbutyl)amino]carbonyl]-2-oxazolyl]phenyl]-7-(3-pyridyl)hept-6-enoic Acid] |  | < 5.00 |  | 
CC(OCCCNC(=O)c1coc(-c2ccc(/C(=C\CCCCC(=O)O)c3cccnc3)cc2)n1)C1CCCCC1 (centres unmarked) [Example 26, (E)-7-[4-[4-[[[3-(1-Cyclohexylethoxy)propyl]amino]carbonyl)-2-oxazolyl]phenyl]-7-(3-pyridyl)hept-6-enoic Acid] | 7.24 | 7.94 | 5.30 | 
O=C(O)CCCC/C=C(\c1ccc(C2=N[C@H](C(=O)NCCCCC3CCCCC3)CO2)cc1)c1cccnc1 [Example 1, (4S)-(E)-7-[4-[4-[[(4-Cyclohexylbutyl)amino]carbonyl]-4,5-dihydro-2-oxazolyl]phenyl]-7-(3-pyridyl)hept-6-enoic Acid] |  | 7.09 |  | 
O=C(O)CCCC/C=C(/c1ccc(C2=N[C@H](C(=O)NCCCCC3CCCCC3)CO2)cc1)c1cccnc1 [Example 3, (4S)-(Z)-7-[4-[4-[[(4-Cyclohexylbutyl)amino]carbonyl]-4,5-dihydro-2-oxazolyl]phenyl]-7-(3-pyridyl)hept-6-enoic Acid] |  | < 5.00 |  | 
O=C(O)CCCC/C=C(\c1ccc(-c2nc(C(=O)NCCCCOc3ccccc3)co2)cc1)c1cccnc1 [Example 30, (E)-7-[4-[4-[[(4-Phenoxybutyl)amino]carbonyl]-2-oxazolyl]phenyl]-7-(3-pyridyl)hept-6-enoic Acid] | 7.28 | 7.31 | 6.30 | 
O=C(O)CCCC/C=C(\c1ccc(-c2nc(C(=O)NCCCCC3CCCCC3)co2)cc1)c1cccnc1 [Example 2, (E)-7-[4-[4-[[(4-Cyclohexylbutyl)amino]carbonyl]-2-oxazolyl]phenyl]-7-(3-pyridyl)hept-6-enoic Acid] | 8.00 | 7.26 | 6.40 | pressor response (TXA2 agonist activity) (pithed rats; pithed rats, i.v., doses up to 10 mg/kg): absence of a pressor response; inhibition at 3 mg/kg (TXA2 formation): > 95%
O=C(O)CCCC/C=C(\c1ccc(-c2nc(C(=O)N[C@@H]3C[C@H]3c3ccccc3)co2)cc1)c1cccnc1 (single isomer, unassigned) [Example 19, (+)-(E)-7-[4-[4-[[(2-(trans)Phenylcyclopropyl)amino]carbonyl]-2-oxazolyl]phenyl]-7-(3-pyridyl)hept-6-enoic Acid] |  |  | 5.30 | 
O=C(O)CCC/C=C\C[C@H]1[C@@H]2CC[C@@H](C2)[C@@H]1NS(=O)(=O)c1ccccc1 [Example S-145, reference compound] |  |  |  | mean arterial pressure (pithed rats; one minute after dosing at 0.1 mg/kg i.v.): transient, but significant, increase
